Measurements: PubChem BioAssay AID248 (DTP/NCI, 2004)
“And” between values parts separate entries of the source, which are not always exact repeats. Identical values can stand only once. Toxic doses and inconclusive results are not listed. Cut-off read from the data, not from the text of the source: active = T/C of 150% or more; inactive = T/C below 125%.

Test system: L1210 leukemia ip in BDF1 mice, survival T/C
Assay: NCI In Vivo Anticancer Drug Screen. Data for tumor model L1210 Leukemia (intraperitoneal) in B6D2F1 (BDF1) mice
Conditions: endpoint: mean survival time, higher = longer survival
Summary of the method: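 Value reflects the ratio of survival in compound-treated mice to survival in vehicle-treated controls, with both groups carrying the same transplanted tumor.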

[1] = dose: 400.0 mg/kg/injection, schedule: Q01DX001 (ip), vehicle: carboxymethylcellulose (CMC)
[2] = dose: 50.0 mg/kg/injection, schedule: Q01DX009 (ip), vehicle: saline
[3] = dose: 100.0 mg/kg/injection, schedule: Q01DX009 (ip), vehicle: saline
[4] = dose: 200.0 mg/kg/injection, schedule: Q01DX009 (ip), vehicle: saline
[5] = dose: 100.0 mg/kg/injection, schedule: Q01DX009 (ip), vehicle: Klucel (hydroxypropylcellulose) (HPC)
[6] = dose: 100.0 mg/kg/injection, schedule: Q04DX003 (ip), vehicle: Klucel (hydroxypropylcellulose) (HPC)
[7] = dose: 200.0 mg/kg/injection, schedule: Q01DX009 (ip), vehicle: Klucel (hydroxypropylcellulose) (HPC)
[8] = dose: 200.0 mg/kg/injection, schedule: Q04DX003 (ip), vehicle: Klucel (hydroxypropylcellulose) (HPC)
[9] = dose: 400.0 mg/kg/injection, schedule: Q04DX003 (ip), vehicle: Klucel (hydroxypropylcellulose) (HPC)

Measured: T/C

CC1C=CCC(C)(C)C1 (stereo not drawn)
inactive: dose: 100.0 mg/kg/injection, schedule: Q01DX001 (ip), vehicle: carboxymethylcellulose (CMC) 95 % of control | dose: 200.0 mg/kg/injection, schedule: Q01DX001 (ip), vehicle: carboxymethylcellulose (CMC) 100 % of control | dose: 200.0 mg/kg/injection, schedule: Q01DX009 (ip), vehicle: carboxymethylcellulose (CMC) 94 % of control | [1] 114 % of control | dose: 400.0 mg/kg/injection, schedule: Q01DX009 (ip), vehicle: carboxymethylcellulose (CMC) 90 % of control | dose: 600.0 mg/kg/injection, schedule: Q01DX009 (ip), vehicle: carboxymethylcellulose (CMC) 92 % of control

CC(=O)OC(C)(C)/C=C/C(=O)C(C)(O)C1C(O)CC2(C)C3CC=C4C(C=C(OC5OC(CO)C(O)C(O)C5O)C(=O)C4(C)C)C3(C)C(=O)CC12C (stereo not drawn)
inactive: dose: 25.0 mg/kg/injection, schedule: Q04DX002 (ip), vehicle: saline with Tween-80 98 % of control | dose: 50.0 mg/kg/injection, schedule: Q04DX002 (ip), vehicle: saline with Tween-80 98 % of control | dose: 100.0 mg/kg/injection, schedule: Q04DX002 (ip), vehicle: saline with Tween-80 96 % of control and 105 % of control

CN1CCC2(CC1)SSC1(CCN(C)CC1)S2
inactive: dose: 100.0 mg/kg/injection, schedule: Q04DX003 (ip), vehicle: saline 98 % of control | dose: 200.0 mg/kg/injection, schedule: Q04DX003 (ip), vehicle: saline 98 % of control

c1ccc(Nc2c3ccccc3nc3ccccc23)cc1
inactive: dose: 100.0 mg/kg/injection, schedule: Q04DX003 (ip), vehicle: other 115 % of control

CCC/C=C/CC1CCCCC1
inactive: [2] 97 % of control | [3] 97 % of control | [4] 102 % of control

CCC1CN2C(=N1)c1cc(Cl)ccc1-c1ccc(Cl)cc12 (stereo not drawn)
inactive: [5] 95 % of control | [6] 101 % of control | [7] 98 % of control | [8] 103 % of control | [9] 116 % of control

NCCCSc1ccc(Br)cc1
inactive: dose: 75.0 mg/kg/injection, schedule: Q01DX001 (ip), vehicle: other 102 % of control | dose: 150.0 mg/kg/injection, schedule: Q01DX001 (ip), vehicle: other 96 % of control | dose: 300.0 mg/kg/injection, schedule: Q01DX001 (ip), vehicle: other 92 % of control

CCOS(C)(=O)=O
inactive: [2] 98 % of control | [3] 101 % of control | dose: 100.0 mg/kg/injection, schedule: Q04DX003 (ip), vehicle: alcohol 102 % of control | [4] 104 % of control | dose: 200.0 mg/kg/injection, schedule: Q04DX003 (ip), vehicle: alcohol 102 % of control

CN(C)C=NC1CCC(CC2CCCCC2)CC1 (stereo not drawn)
inactive: dose: 75.0 mg/kg/injection, schedule: Q04DX003 (ip), vehicle: Klucel (hydroxypropylcellulose) (HPC) 92 % of control | dose: 100.0 mg/kg/injection, schedule: Q01DX001 (ip), vehicle: Klucel (hydroxypropylcellulose) (HPC) 96 % of control | dose: 150.0 mg/kg/injection, schedule: Q04DX003 (ip), vehicle: Klucel (hydroxypropylcellulose) (HPC) 100 % of control | dose: 200.0 mg/kg/injection, schedule: Q01DX001 (ip), vehicle: Klucel (hydroxypropylcellulose) (HPC) 95 % of control | dose: 300.0 mg/kg/injection, schedule: Q04DX003 (ip), vehicle: Klucel (hydroxypropylcellulose) (HPC) 97 % of control

CCCCCCCCCCCCCCCCCC(=O)Oc1c(C(C)CC)cc([N+](=O)[O-])cc1[N+](=O)[O-] (stereo not drawn)
inactive: dose: 100.0 mg/kg/injection, schedule: Q04DX002 (ip), vehicle: Klucel (hydroxypropylcellulose) (HPC) 89 % of control | dose: 200.0 mg/kg/injection, schedule: Q04DX002 (ip), vehicle: Klucel (hydroxypropylcellulose) (HPC) 86 % of control | dose: 400.0 mg/kg/injection, schedule: Q04DX002 (ip), vehicle: Klucel (hydroxypropylcellulose) (HPC) 105 % of control

O=c1ccc2cc(OC3OC(CO)C(O)C(O)C3O)c(O)cc2o1 (stereo not drawn)
inactive: dose: 62.5 mg/kg/injection, schedule: Q01DX015 (ip), vehicle: carboxymethylcellulose (CMC) 95 % of control | dose: 125.0 mg/kg/injection, schedule: Q01DX015 (ip), vehicle: carboxymethylcellulose (CMC) 105 % of control | dose: 250.0 mg/kg/injection, schedule: Q01DX015 (ip), vehicle: carboxymethylcellulose (CMC) 100 % of control | [1] 111 % of control | dose: 600.0 mg/kg/injection, schedule: Q01DX001 (ip), vehicle: carboxymethylcellulose (CMC) 90 % of control | dose: 800.0 mg/kg/injection, schedule: Q01DX001 (ip), vehicle: carboxymethylcellulose (CMC) 92 % of control | dose: 1000.0 mg/kg/injection, schedule: Q01DX001 (ip), vehicle: carboxymethylcellulose (CMC) 101 % of control

CC1=C(c2ccccc2)C(c2ccccc2)=C(C)C1=NNc1ccc([N+](=O)[O-])cc1[N+](=O)[O-]
inactive: dose: 100.0 mg/kg/injection, schedule: Q01DX001 (ip), vehicle: saline with Tween-80 86 % of control | dose: 200.0 mg/kg/injection, schedule: Q01DX001 (ip), vehicle: saline with Tween-80 86 % of control | dose: 400.0 mg/kg/injection, schedule: Q01DX001 (ip), vehicle: saline with Tween-80 86 % of control

OCC1OCC(O)C(O)C1O (stereo not drawn)
inactive: [2] 94 % of control | [3] 91 % of control | [4] 88 % of control

COc1cccc(C)c1NC(=O)NCCCl
inactive: [6] 100 % of control | [8] 94 % of control | [9] 94 % of control

O=C(CCCC(=O)N/N=C/c1cccc(Cl)c1)N/N=C\c1cccc(Cl)c1
inactive: dose: 50.0 mg/kg/injection, schedule: Q01DX001 (ip), vehicle: other 90 % of control | dose: 100.0 mg/kg/injection, schedule: Q01DX001 (ip), vehicle: other 93 % of control | dose: 400.0 mg/kg/injection, schedule: Q01DX001 (ip), vehicle: other 88 % of control

NCC(NCc1ccccc1)(c1ccccc1)c1ccccc1
inactive: dose: 20.0 mg/kg/injection, schedule: Q04DX003 (ip), vehicle: Klucel (hydroxypropylcellulose) (HPC) 94 % of control | dose: 40.0 mg/kg/injection, schedule: Q04DX003 (ip), vehicle: Klucel (hydroxypropylcellulose) (HPC) 96 % of control | dose: 80.0 mg/kg/injection, schedule: Q04DX003 (ip), vehicle: Klucel (hydroxypropylcellulose) (HPC) 102 % of control

O=C(O)c1cc(-c2ccc3cc4c(cc3c2)OCO4)nc2ccccc12
inactive: dose: 75.0 mg/kg/injection, schedule: Q01DX001 (ip), vehicle: saline 97 % of control | dose: 150.0 mg/kg/injection, schedule: Q01DX001 (ip), vehicle: saline 101 % of control | dose: 300.0 mg/kg/injection, schedule: Q01DX001 (ip), vehicle: saline 93 % of control

C/C(=C\C(=O)O)CC(=O)O
inactive: dose: 25.0 mg/kg/injection, schedule: Q01DX009 (ip), vehicle: water 88 % of control | dose: 25.0 mg/kg/injection, schedule: Q04DX003 (ip), vehicle: water 95 % of control and 105 % of control | dose: 50.0 mg/kg/injection, schedule: Q04DX003 (ip), vehicle: water 104 % of control and 89 % of control | dose: 100.0 mg/kg/injection, schedule: Q01DX009 (ip), vehicle: water 88 % of control | dose: 100.0 mg/kg/injection, schedule: Q04DX003 (ip), vehicle: water 101 % of control and 102 % of control | dose: 200.0 mg/kg/injection, schedule: Q04DX003 (ip), vehicle: water 93 % of control

Cc1c(NC=O)c(=O)n(-c2ccccc2)n1C
inactive: [5] 92 % of control | [6] 107 % of control | [7] 93 % of control | [8] 100 % of control | dose: 400.0 mg/kg/injection, schedule: Q01DX009 (ip), vehicle: Klucel (hydroxypropylcellulose) (HPC) 100 % of control | [9] 105 % of control
